In one assay the target is T1, Dopamine D2 (Rattus norvegicus, UniProt P61169).
T1 construct: dopaminergic receptors was also measured using rat striata; from tissue; host or cells: rat striata
Nature of the assay: Binding to dopaminergic receptors using rat striata (method of Terai et al.). The protocol:
The binding of these compounds to dopaminergic receptors was also measured using rat striata according to the method described by Terai et al. (M. Terai, et al., Eur. J. Pharmacol. 1989, 173, 177).

In another assay the target is sigma 1 binding site (Cavia porcellus, UniProt Q60492). Nature of the assay: biochemical.
The target of the next assay is T2, sigma 2 binding site (Rattus norvegicus, UniProt Q5U3Y7).
T2 sequence (Q5U3Y7 1-176): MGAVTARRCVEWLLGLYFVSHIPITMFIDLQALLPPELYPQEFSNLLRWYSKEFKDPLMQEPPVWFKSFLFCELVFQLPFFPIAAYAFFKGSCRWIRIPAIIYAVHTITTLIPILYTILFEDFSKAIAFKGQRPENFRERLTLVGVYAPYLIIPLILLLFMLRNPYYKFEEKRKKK
Nature of the assay: Sigma 2 selective receptor binding inhibition assay with [^3H]-di-o-tolylguanidine. The note with it: for S2/S1 Ratio: ratio of Sigma 2 Ki to Sigma 1 Ki.

The results in this text go back to patent EP0881220A1, “DIARYLSULTAM DERIVATIVES” (priority 1996, dated 1997).

pKi: −log10 of the molar value. Counter-ions that a name gives are not always drawn.

T1 sequence (P61169 whole entry): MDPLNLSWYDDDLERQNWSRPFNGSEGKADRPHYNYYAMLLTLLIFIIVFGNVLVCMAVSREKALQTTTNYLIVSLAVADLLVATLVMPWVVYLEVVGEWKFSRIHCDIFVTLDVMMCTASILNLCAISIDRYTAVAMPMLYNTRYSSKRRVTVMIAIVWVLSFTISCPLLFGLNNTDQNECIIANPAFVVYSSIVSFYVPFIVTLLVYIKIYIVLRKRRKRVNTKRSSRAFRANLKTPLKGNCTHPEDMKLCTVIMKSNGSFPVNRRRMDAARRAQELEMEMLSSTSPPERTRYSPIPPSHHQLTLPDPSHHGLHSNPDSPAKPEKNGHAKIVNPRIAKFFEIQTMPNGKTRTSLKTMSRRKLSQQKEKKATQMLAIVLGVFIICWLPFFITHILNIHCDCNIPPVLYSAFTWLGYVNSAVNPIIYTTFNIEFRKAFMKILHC
sigma 1 binding site, sequence (Q60492 whole entry): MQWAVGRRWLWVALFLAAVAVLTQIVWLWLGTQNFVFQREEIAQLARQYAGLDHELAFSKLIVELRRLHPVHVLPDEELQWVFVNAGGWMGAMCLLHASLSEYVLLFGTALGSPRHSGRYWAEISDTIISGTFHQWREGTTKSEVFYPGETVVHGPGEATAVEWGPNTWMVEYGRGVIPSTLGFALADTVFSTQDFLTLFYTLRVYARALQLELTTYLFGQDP

As for `O=S1(=O)c2ccccc2Nc2ccc(Cl)cc2N1CC1CCN(CC(O)C23CC4CC(CC(C4)C2)C3)CC1` (racemic) [Example 8, (R,S)-1-(1-Adamantyl)-2-[4-(8-chloro-6,11-dihydrodibenzo[c,f][1,2,5]thiadiazepin-6-ylmethyl)piperidin-1-yl]ethanol S,S-dioxide hydrochloride], the negative-log Ki (pKi) (commonly the negative decadic logarithm of the Ki, by convention in mol/L) at Dopamine D2 was 6.39; on sigma 1 binding site, 6.20; at sigma 2 binding site, 7.80. Moreover, the “S2/S1 Ratio” value at sigma 2 binding site was 0.03.

For `O=S1(=O)c2cc(Cl)ccc2Oc2ccccc2N1CC1CCN(CC(O)c2ccc(C(F)(F)F)cc2)CC1` (racemic) [Example 18, (R,S)-1-(4-Trifluoromethylphenyl)-2-[4-(3-chloro-6H-dibenzo[b,f][1,4,5]oxathiazepin-6-ylmethyl)piperidin-1-yl]ethanol S,S-dioxide hydrochloride], the pKi on Dopamine D2 was 6.46; at sigma 1 binding site it was 5.96; on sigma 2 binding site, 8.49. Also, on sigma 2 binding site, the “S2/S1 Ratio” value came out at 0.003.

In the case of `O=S1(=O)c2cc(Cl)ccc2Oc2ccccc2N1CC1CCN(CC(O)c2ccc(OC(F)(F)F)cc2)CC1` (racemic) [Example 19, (R,S)-1-(4-Trifluoromethoxyphenyl)-2-[4-(3-chloro-6H-dibenzo[b,f][1,4,5]oxathiazepin-6-ylmethyl)piperidin-1-yl]ethanol S,S-dioxide hydrochloride], the pKi on Dopamine D2 was 6.57; on sigma 1 binding site it was 5.92; on sigma 2 binding site it was 8.08. Moreover, the “S2/S1 Ratio” value at sigma 2 binding site amounted to 0.007.

For the compound `CN(CCCCN1c2ccccc2Oc2ccc(Cl)cc2S1(=O)=O)CC(O)C12CC3CC(CC(C3)C1)C2` (racemic) [Example 23, (R,S)-1-(1-Adamantyl)-2-[N-methyl-N-[4-(3-chloro-6H-dibenzo[b,f][1,4,5]oxathiazepin-6-yl)butyl]amino]ethanol S,S-dioxide hydrochloride], the pKi at Dopamine D2 is 5.96; at sigma 1 binding site, 5.80; at sigma 2 binding site it was 7.46. In addition, the “S2/S1 Ratio” value on sigma 2 binding site is recorded as 0.02.

Consider `COc1ccc2c(c1)N(CC1CCN(CC(O)c3ccc(F)cc3)CC1)S(=O)(=O)c1ccccc1O2` (racemic) [Example 22, (R,S)-1-(4-Fluorophenyl)-2-[4-(8-methoxy-6H-dibenzo[b,f][1,4,5]oxathiazepin-6-ylmethyl)piperidin-1-yl]ethanol S,S-dioxide hydrochloride], for which the pKi on Dopamine D2 is 6.06; on sigma 1 binding site it was 7.15; at sigma 2 binding site it was 8.43. In addition, the “S2/S1 Ratio” value at sigma 2 binding site is reported as 0.05.

Consider `Cc1ccccc1C(O)CN1CCC(CN2c3ccccc3Nc3ccccc3S2(=O)=O)CC1` (racemic) [Example 5, (R,S)-1-(2-Methylphenyl)-2-[4-(6,11-dihydrodibenzo[c,f][1,2,5]thiadiazepin-6-ylmethyl)piperidin-1-yl]ethanol S,S-dioxide hydrochloride], for which the pKi was 7.10 on Dopamine D2, 7.15 on sigma 1 binding site and 7.89 at sigma 2 binding site. In addition, on sigma 2 binding site, the “S2/S1 Ratio” value came to 0.2.

As for `CN1c2ccccc2N(CC2CCN(CC(O)c3ccc(F)cc3)CC2)S(=O)(=O)c2ccccc21` (racemic) [Example 7, (R,S)-1-(4-Fluorophenyl)-2-[4-(11-methyl-6,11-dihydrodibenzo[c,f][1,2,5]thiadiazepin-6-ylmethyl)piperidin-1-yl]ethanol S,S-dioxide hydrochloride], the pKi is 6.49 at Dopamine D2, 6.27 at sigma 1 binding site and 8.40 at sigma 2 binding site. Further, the “S2/S1 Ratio” value at sigma 2 binding site is on record as 0.007.

For the compound `COc1ccc(C(O)CN2CCC(CN3c4ccccc4Oc4ccccc4S3(=O)=O)CC2)cc1` (racemic) [Example 12, (R,S)-1-(4-Methoxyphenyl)-2-[4-(6H-dibenzo[b,f][1,4,5]oxathiazepin-6-ylmethyl)piperidin-1-yl]ethanol S,S-dioxide hydrochloride], the pKi at Dopamine D2 was 6.55; at sigma 1 binding site, 7.11; on sigma 2 binding site, 8.15. Moreover, on sigma 2 binding site, the “S2/S1 Ratio” value was determined as 0.09.

Regarding `COc1ccc2c(c1)N(CC1CCN(CC(O)c3ccc(F)cc3)CC1)S(=O)(=O)c1cc(Cl)ccc1O2` (racemic) [Example 21, (R,S)-1-(4-Fluorophenyl)-2-[4-(3-chloro-8-methoxy-6H-dibenzo[b,f][1,4,5]oxathiazepin-6-ylmethyl)piperidin-1-yl]ethanol S,S-dioxide hydrochloride], the pKi is 6.09 on Dopamine D2, 6.38 on sigma 1 binding site and 8.05 on sigma 2 binding site. Besides, the “S2/S1 Ratio” value on sigma 2 binding site was found to be 0.02.

For `O=S1(=O)c2cc(Cl)ccc2Oc2ccccc2N1CC1CCN(CC(O)c2ccccc2)CC1` (racemic) [Example 15, (R,S)-1-Phenyl-2-[4-(3-chloro-6H-dibenzo[b,f][1,4,5]oxathiazepin-6-yl-methyl)piperidin-1-yl]ethanol S,S-dioxide hydrochloride], the pKi at Dopamine D2 is 6.74; at sigma 1 binding site, 6.96; at sigma 2 binding site, 8.89. Besides, the “S2/S1 Ratio” value at sigma 2 binding site came out at 0.01.

Take `O=C(CN1CCC(CN2c3ccccc3Nc3ccccc3S2(=O)=O)CC1)C12CC3CC(CC(C3)C1)C2` [Example 1, 6-[[1-[2-(1-Adamantyl)-2-oxoethyl]-4-piperidinyl]methyl]-6,11-dihydrodibenzo[c,f][1,2,5]thiadiazepine 5,5-dioxide·hydrochloride]: the pKi was less than 6.00 at Dopamine D2, 6.82 on sigma 1 binding site and 8.30 at sigma 2 binding site. In addition, the “S2/S1 Ratio” value at sigma 2 binding site worked out at 0.03.

For the compound `COc1ccc2c(c1)N(CC1CCN(CC(O)C34CC5CC(CC(C5)C3)C4)CC1)S(=O)(=O)c1cc(Cl)ccc1O2` (racemic) [Example 20, hydrochloride], the pKi at Dopamine D2 is 6.10; at sigma 1 binding site, 5.46; at sigma 2 binding site, 8.00. Further, the “S2/S1 Ratio” value at sigma 2 binding site is given as 0.003.

Regarding `CN1c2ccccc2N(CC2CCN(CC(O)C34CC5CC(CC(C5)C3)C4)CC2)S(=O)(=O)c2ccccc21` (racemic) [Example 6, (R,S)-1-(1-Adamantyl)-2-[4-(11-methyl-6,11-dihydrodibenzo[c,f][1,2,5]thiadiazepin-6-ylmethyl)piperidin-1-yl]ethanol S,S-dioxide hydrochloride], the pKi is 6.77 at Dopamine D2, 5.68 at sigma 1 binding site and 8.57 at sigma 2 binding site. The “S2/S1 Ratio” value on sigma 2 binding site came to 0.001.

For the compound `O=S1(=O)c2ccccc2Oc2ccccc2N1CC1CCN(CC(O)c2ccc(Cl)cc2)CC1` (racemic) [Example 11, (R,S)-1-(4-Chlorophenyl)-2-[4-(6H-dibenzo[b,f][1,4,5]oxathiazepin-6-ylmethyl)piperidin-1-yl]ethanol S,S-dioxide hydrochloride], the pKi was 6.70 at Dopamine D2, 7.37 on sigma 1 binding site and 8.64 on sigma 2 binding site. For the same compound, at sigma 2 binding site, the “S2/S1 Ratio” value is given as 0.05.

Consider `O=S1(=O)c2ccccc2Nc2ccccc2N1CC1CCN(CC(O)c2ccc(F)cc2F)CC1` (racemic) [Example 3, (R,S)-1-(2,4-Difluorophenyl)-2-[4-(6,11-dihydrodibenzo[c,f][1,2,5]thiadiazepin-6-yl-methyl)piperidin-1-yl]ethanol S,S-dioxide hydrochloride], for which the results for the pKi on Dopamine D2, on sigma 1 binding site and on sigma 2 binding site were 6.15, 6.55 and 7.80, respectively. The “S2/S1 Ratio” value at sigma 2 binding site was found to be 0.06.
